Laboratory results reported in ChEMBL document CHEMBL1201862, “PubChem BioAssay data set” (2004).
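Cultured in 96-well plates, cells were exposed to test compound for 48 hours across five concentrations. GI50 = concentration required for 50% inhibition of growth.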 Active and inactive are the calls of the source. Cut-off read from the data, not from the text of the source: active = GI50 up to about 1.1 µM and inactive = higher.

Columns and labels:
Experiment in all cases: NCI anticancer screen, dose series, 48 h
[1] = tested on: SK-MEL-5
[2] = tested on: SR
[3] = tested on: NCI-H460
[4] = tested on: RXF 393
[5] = tested on: HOP-92
[6] = tested on: ACHN
[7] = tested on: SK-MEL-28
[8] = tested on: TK-10
[9] = tested on: HOP-62
[10] = tested on: OVCAR-4
[11] = tested on: KM12
[12] = tested on: SK-OV-3
[13] = tested on: HCC 2998
[14] = tested on: UO-31
[15] = tested on: SF-539
[16] = tested on: COLO 205
[17] = tested on: Malme-3M

Measured: GI50

COc1cc2cc3c4c(cc(OC)c(OC)c4c2cc1OC)CCN3C(=O)N(C)C
inactive: [1] > 100 µM | [2] > 100 µM | [3] 87.7 µM | [4] > 100 µM | [5] 91 µM | [6] 75.5 µM | [7] 27.9 µM | [8] > 10 µM | [9] 72.1 µM | [10] 89.5 µM | [11] > 100 µM | [12] > 100 µM | [13] > 100 µM | [14] > 100 µM | [15] 34.5 µM | [16] > 100 µM | [17] 59.3 µM

OC1(c2ccccc2)OC(C#Cc2ccccc2)(c2ccccc2)c2ccccc21 (stereo unspecified)
inactive: [1] 7.89 µM | [2] 2.5 µM | [3] 4.47 µM | [4] 1.95 µM | [5] 4 µM | [8] 13.3 µM | [9] 15.4 µM | [10] 2.82 µM | [11] 1.59 µM | [12] 1.46 µM | [14] 1.71 µM | [15] 1.97 µM | [16] 2.31 µM | [17] 10.6 µM

CCOC(=O)c1c2cccccc2n2c(=O)cc(C)nc12
inactive: [2] > 100 µM | [3] > 100 µM | [4] > 100 µM | [6] > 100 µM | [7] > 100 µM | [8] > 100 µM | [9] > 100 µM | [10] > 100 µM | [11] > 100 µM | [13] > 100 µM | [14] > 100 µM | [15] > 100 µM | [16] > 100 µM

Nc1nc(N)c(N=O)c(Nc2ccc(I)cc2)n1
inactive: [1] 13.5 µM | [2] 10.8 µM | [3] 27.5 µM | [4] 17.9 µM | [6] 24 µM | [7] 14 µM | [8] 31 µM | [9] 16.6 µM | [11] 18.5 µM | [12] 5.33 µM | [13] 27.5 µM | [14] 18 µM | [15] 25.5 µM | [16] 18.6 µM | [17] 19.2 µM

O=C(CC(=O)c1ccccc1)C(=O)Nc1ccc(Cl)cc1
inactive: [1] > 100 µM | [2] > 100 µM | [3] > 39.5 µM | [4] > 100 µM | [5] > 100 µM | [6] > 100 µM | [7] > 100 µM | [8] > 100 µM | [9] > 100 µM | [10] > 100 µM | [11] > 100 µM | [12] > 100 µM | [13] > 64.3 µM | [14] > 100 µM | [15] > 100 µM | [16] > 46.2 µM | [17] > 100 µM

Cn1c(=O)c(C2c3ccccc3Oc3c2c(=O)n(C)c2ccccc32)c(O)c2ccccc21 (stereo unspecified)
inactive: [1] > 100 µM | [2] 42.1 µM | [3] > 100 µM | [4] 63 µM | [5] 42.9 µM | [6] 39.8 µM | [7] 86.9 µM | [8] 33.3 µM | [9] > 100 µM | [10] 86.7 µM | [11] 69.8 µM | [12] 63.8 µM | [13] 44.3 µM | [14] 73.5 µM | [15] 76.2 µM | [16] 30.6 µM | [17] 73.5 µM

CC(C)(C)c1cc(CCC(=O)Nc2ccc(Cl)cc2Cl)nc(N)n1
inactive: [1] > 100 µM | [2] > 100 µM | [3] > 100 µM | [4] > 100 µM | [5] 91.6 µM | [6] > 100 µM | [7] > 100 µM | [9] > 100 µM | [10] > 100 µM | [11] > 100 µM | [12] > 100 µM | [13] > 100 µM | [14] > 100 µM | [15] > 100 µM | [16] > 100 µM | [17] > 100 µM

O=C(/C=C/c1ccccc1F)c1ccc(Cl)c(Cl)c1
inactive: [1] 33.5 µM | [2] 33.3 µM | [3] > 71.1 µM | [4] 21.9 µM | [5] > 100 µM | [6] > 88.1 µM | [7] > 53.1 µM | [8] > 100 µM | [9] > 100 µM | [10] 44.4 µM | [11] 19.9 µM | [12] > 100 µM | [13] 24.7 µM | [14] 40.9 µM | [15] 30 µM | [16] 75.3 µM | [17] > 92.9 µM

COc1ccccc1NC(=O)C1=C(C)NC(C)=C(C(=O)Nc2ccccc2OC)C1/C=C/c1ccccc1
inactive: [1] > 100 µM | [2] 51.8 µM | [3] > 100 µM | [5] > 100 µM | [6] 90.8 µM | [7] > 100 µM | [8] > 100 µM | [9] > 100 µM | [10] 20.1 µM | [11] > 100 µM | [12] > 100 µM | [13] > 100 µM | [14] > 100 µM | [15] > 100 µM | [16] > 100 µM | [17] > 100 µM

Cc1nc(=O)n2c(C)n[nH]c2c1C(=O)Nc1cc(Cl)cc(Cl)c1
inactive: [1] 16.1 µM | [2] 19.9 µM | [3] 26.9 µM | [4] 11.9 µM | [5] 17.5 µM | [6] 20 µM | [7] 26.1 µM | [8] 19.8 µM | [9] 25.6 µM | [10] 29.2 µM | [11] 31.9 µM | [12] 29 µM | [14] 20.4 µM | [15] 21.8 µM | [16] 26.7 µM | [17] 30.9 µM

NC(CCSCC(F)(F)F)C(=O)O (stereo unspecified)
inactive: [1] > 100 µM | [2] > 100 µM | [3] > 100 µM | [4] > 100 µM | [5] > 100 µM | [6] > 100 µM | [7] > 100 µM | [8] > 100 µM | [9] > 100 µM | [10] > 100 µM | [11] > 100 µM | [13] > 100 µM | [14] > 100 µM | [15] > 100 µM | [16] > 100 µM | [17] > 100 µM

COc1cc(C2c3cc4c(cc3[C@@H](N(C)C)[C@H]3COC(=O)C23)OCO4)cc(OC)c1O (stereo partly specified)
inactive: [1] 23.7 µM | [2] 54.5 µM | [3] 31.2 µM | [4] 86.7 µM | [5] 11.2 µM | [6] 41.5 µM | [7] 14.5 µM | [8] > 100 µM | [9] 50.4 µM | [10] 42.9 µM | [11] 38.2 µM | [12] 37 µM | [13] 53.6 µM | [14] > 100 µM | [15] 21 µM | [16] 39.4 µM | [17] 37.7 µM
